# Results taken from patent publication US20250163104A1, “MACROCYCLIC IMMUNOMODULATORS” (priority 2021, published 2025).
# Where a SMILES comes first, the peptide text is derived from it. Bridges are numbered along the chain shown (N, C = ends). [ ]: non-standard residue; d: D form. The star is where a group is joined. Phe(4-COOH) = N[C@@H](Cc1ccc(C(=O)O)cc1)C(=O)O; Bip = N[C@@H](Cc1ccc(-c2ccccc2)cc1)C(=O)O; d(aThr) = C[C@@H](O)[C@@H](N)C(=O)O; 3Pal = N[C@@H](Cc1cccnc1)C(=O)O; 4Pal = N[C@@H](Cc1ccncc1)C(=O)O; Cit = NC(=O)NCCC[C@H](N)C(=O)O; Carboxymethyl = O=C(O)C*; Orn = NCCC[C@H](N)C(=O)O; Dab = NCC[C@H](N)C(=O)O; Dap = NC[C@H](N)C(=O)O
# Target: T1, human PD-1 / PD-L1-Ig binding on Jurkat cell line over-expressing human PD-1 (Jurkat-PD-1) (Homo sapiens, UniProt Q15116)
# T1 construct: expressed in transfected cells; host or cells: Jurkat
# Assay: Jurkat-PD-1 Cell Binding High-Content Screening Assay (CBA)
# Format: cell-based
# Settings: Jurkat-PD-1 cells, PE-labeled PD-L1-Ig 20 nM final; read-out: Jurkat HPD1_PDL1 IC50
# Procedure, shortened: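 Jurkat-hPD-1 cells in DMEM with 10% fetal calf serum receive test compound and are held at 37° C for 2 h. PE-labeled PD-L1-Ig is added at 20 nM final and left for 1 hour. Cells are then fixed and Hoechst-stained, and binding is measured by imaging.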
# T1 sequence (Q15116 25-288): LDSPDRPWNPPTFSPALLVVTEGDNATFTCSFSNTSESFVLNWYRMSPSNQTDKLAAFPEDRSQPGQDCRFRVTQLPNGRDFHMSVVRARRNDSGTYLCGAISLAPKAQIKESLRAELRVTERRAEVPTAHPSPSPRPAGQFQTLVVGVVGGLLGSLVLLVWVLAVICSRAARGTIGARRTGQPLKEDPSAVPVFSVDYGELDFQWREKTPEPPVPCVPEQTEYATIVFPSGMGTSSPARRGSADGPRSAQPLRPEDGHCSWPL
row,SMILES,IC50
1,CC(C)C[C@@H]1NC(=O)[C@H](CCCCN)NC(=O)[C@@H](CC(C)C)NC(=O)[C@H](CCCN)NC(=O)[C@H](CCCNC(=N)N)NC(=O)[C@H](Cc2ccc(-c3ccccc3)cc2)NC(=O)[C@H](C(C)C)NC(=O)[C@H](Cc2c[nH]c3ccccc23)NC(=O)[C@H](CC(=O)O)NC(=O)[C@H](Cc2ccc(O)cc2)NC(=O)[C@H](CC(N)=O)NC(=O)CSC[C@@H](C(=O)N[C@@H](C)C(N)=O)NC(=O)[C@H]([C@@H](C)O)NC(=O)[C@H](C(C)C)NC1=O [Compound 1030] ({CH2CO}-NYDWV[Bip]R[Orn][dL]KLVTCA-NH2; thioether N-14),10.8 nM
2,CC(C)C[C@@H]1NC(=O)[C@H](CCN)NC(=O)[C@@H](CC(C)C)NC(=O)[C@H](Cc2ccc(O)cc2)NC(=O)[C@H](C(C)C)NC(=O)[C@H](Cc2ccc(-c3ccccc3)cc2)NC(=O)[C@@H](C(C)C)NC(=O)[C@H](Cc2c[nH]c3ccccc23)NC(=O)[C@H](CC(=O)O)NC(=O)[C@H](Cc2ccc(O)cc2)NC(=O)[C@H](CC(N)=O)NC(=O)CSC[C@@H](C(=O)N[C@@H](C)C(N)=O)NC(=O)[C@@H]([C@@H](C)O)NC(=O)[C@H](C(C)C)NC1=O [Compound 1031] ({CH2CO}-NYDW[dV][Bip]VY[dL][Dab]LV[d(aThr)]CA-NH2; thioether N-14),87.4 nM
3,CC(C)C[C@@H]1NC(=O)[C@H](CCN)NC(=O)[C@@H](CC(C)C)NC(=O)[C@@H](CC(C)C)NC(=O)[C@H](C(C)C)NC(=O)[C@H](Cc2ccc(-c3ccccc3)cc2)NC(=O)[C@H](C(C)C)NC(=O)[C@H](Cc2c[nH]c3ccccc23)NC(=O)[C@H](CC(=O)O)NC(=O)[C@H](Cc2ccc(O)cc2)NC(=O)[C@H](CC(N)=O)NC(=O)CSC[C@@H](C(=O)N[C@@H](C)C(N)=O)NC(=O)[C@H]([C@@H](C)O)NC(=O)[C@H](C(C)C)NC1=O [Compound 1032] ({CH2CO}-NYDWV[Bip]V[dL][dL][Dab]LVTCA-NH2; thioether N-14),15.5 nM
4,CC(C)C[C@@H]1NC(=O)[C@H](CCN)NC(=O)[C@@H](CC(C)C)NC(=O)[C@H](CC(=O)O)NC(=O)[C@H](C(C)C)NC(=O)[C@H](Cc2ccc(-c3ccccc3)cc2)NC(=O)[C@H](C(C)C)NC(=O)[C@H](Cc2c[nH]c3ccccc23)NC(=O)[C@H](CC(=O)O)NC(=O)[C@H](Cc2ccc(O)cc2)NC(=O)[C@H](CC(N)=O)NC(=O)CSC[C@@H](C(=O)N[C@@H](C)C(N)=O)NC(=O)[C@H]([C@@H](C)O)NC(=O)[C@H](C(C)C)NC1=O [Compound 1033] ({CH2CO}-NYDWV[Bip]VD[dL][Dab]LVTCA-NH2; thioether N-14),29.4 nM
5,CC(C)C[C@@H]1NC(=O)[C@H](CCN)NC(=O)[C@@H](CC(C)C)NC(=O)[C@H](C(C)C)NC(=O)[C@H](C(C)C)NC(=O)[C@H](Cc2ccc(-c3ccccc3)cc2)NC(=O)[C@H](C(C)C)NC(=O)[C@H](Cc2c[nH]c3ccccc23)NC(=O)[C@H](CC(=O)O)NC(=O)[C@H](Cc2ccc(O)cc2)NC(=O)[C@H](CC(N)=O)NC(=O)CSC[C@@H](C(=O)N[C@@H](C)C(N)=O)NC(=O)[C@H]([C@@H](C)O)NC(=O)[C@H](C(C)C)NC1=O [Compound 1034] ({CH2CO}-NYDWV[Bip]VV[dL][Dab]LVTCA-NH2; thioether N-14),99 nM
6,CC(C)C[C@@H]1NC(=O)[C@H](CCN)NC(=O)[C@@H](CC(C)C)NC(=O)[C@H](CC(N)=O)NC(=O)[C@H](C(C)C)NC(=O)[C@H](Cc2ccc(-c3ccccc3)cc2)NC(=O)[C@H](C(C)C)NC(=O)[C@H](Cc2c[nH]c3ccccc23)NC(=O)[C@H](CC(=O)O)NC(=O)[C@H](Cc2ccc(O)cc2)NC(=O)[C@H](CC(N)=O)NC(=O)CSC[C@@H](C(=O)N[C@@H](C)C(N)=O)NC(=O)[C@H]([C@@H](C)O)NC(=O)[C@H](C(C)C)NC1=O [Compound 1036] ({CH2CO}-NYDWV[Bip]VN[dL][Dab]LVTCA-NH2; thioether N-14),26.4 nM
7,CC(C)C[C@@H]1NC(=O)[C@H](CCN)NC(=O)[C@@H](CC(C)C)NC(=O)[C@H](CC(C)C)NC(=O)[C@H](C(C)C)NC(=O)[C@H](Cc2ccc(-c3ccccc3)cc2)NC(=O)[C@H](C(C)C)NC(=O)[C@H](Cc2c[nH]c3ccccc23)NC(=O)[C@H](CC(=O)O)NC(=O)[C@H](Cc2ccc(O)cc2)NC(=O)[C@H](CC(N)=O)NC(=O)CSC[C@@H](C(=O)N[C@@H](C)C(N)=O)NC(=O)[C@H]([C@@H](C)O)NC(=O)[C@H](C(C)C)NC1=O [Compound 1037] ({CH2CO}-NYDWV[Bip]VL[dL][Dab]LVTCA-NH2; thioether N-14),53.9 nM
8,CC[C@H](C)[C@@H]1NC(=O)[C@H](Cc2ccc(-c3ccccc3)cc2)NC(=O)[C@H](C(C)C)NC(=O)[C@H](Cc2c[nH]c3ccccc23)NC(=O)[C@H](CC(=O)O)NC(=O)[C@H](Cc2ccc(O)cc2)NC(=O)[C@H](CC(N)=O)NC(=O)CSC[C@@H](C(=O)N[C@@H](C)C(N)=O)NC(=O)[C@H]([C@@H](C)O)NC(=O)[C@H](C(C)C)NC(=O)[C@H](CC(C)C)NC(=O)[C@H](CCN)NC(=O)[C@@H](CC(C)C)NC(=O)[C@H](CCCN)NC1=O [Compound 1038] ({CH2CO}-NYDWV[Bip]I[Orn][dL][Dab]LVTCA-NH2; thioether N-14),7 nM
9,CC[C@H](C)[C@@H]1NC(=O)[C@H](Cc2ccc(-c3ccccc3)cc2)NC(=O)[C@H](C(C)C)NC(=O)[C@H](Cc2c[nH]c3ccccc23)NC(=O)[C@H](CC(=O)O)NC(=O)[C@H](Cc2ccc(O)cc2)NC(=O)[C@H](CC(N)=O)NC(=O)CSC[C@@H](C(=O)N[C@@H](C)C(N)=O)NC(=O)[C@H]([C@@H](C)O)NC(=O)[C@H](C(C)C)NC(=O)[C@H](CC(C)C)NC(=O)[C@H](CCN)NC(=O)[C@@H](CC(C)C)NC(=O)[C@H](CCCCN)NC1=O [Compound 1039] ({CH2CO}-NYDWV[Bip]IK[dL][Dab]LVTCA-NH2; thioether N-14),12.1 nM
10,CC(C)C[C@@H]1NC(=O)[C@H](CCN)NC(=O)[C@@H](CC(C)C)NC(=O)[C@H](CCCN)NC(=O)[C@H](CCCNC(N)=O)NC(=O)[C@H](Cc2ccc(-c3ccccc3)cc2)NC(=O)[C@H](C(C)C)NC(=O)[C@H](Cc2c[nH]c3ccccc23)NC(=O)[C@H](CC(=O)O)NC(=O)[C@H](Cc2ccc(OCC(=O)O)cc2)NC(=O)[C@H](CN)NC(=O)CSC[C@@H](C(=O)N[C@@H](C)C(N)=O)NC(=O)[C@H]([C@@H](C)O)NC(=O)[C@H](C(C)C)NC1=O [Compound 1040] ({CH2CO}-[Dap]Y(Carboxymethyl)DWV[Bip][Cit][Orn][dL][Dab]LVTCA-NH2; thioether N-14),24.3 nM
11,CC(C)C[C@@H]1NC(=O)[C@H](CCN)NC(=O)[C@@H](CC(C)C)NC(=O)[C@H](CCCN)NC(=O)[C@H](CCCNC(N)=O)NC(=O)[C@H](Cc2ccc(-c3ccccc3)cc2)NC(=O)[C@H](C(C)C)NC(=O)[C@H](Cc2c[nH]c3ccccc23)NC(=O)[C@H](CC(=O)O)NC(=O)[C@H](Cc2ccc(O)cc2)NC(=O)[C@H](Cc2cccnc2)NC(=O)CSC[C@@H](C(=O)N[C@@H](C)C(N)=O)NC(=O)[C@H]([C@@H](C)O)NC(=O)[C@H](C(C)C)NC1=O [Compound 1041] ({CH2CO}-[3Pal]YDWV[Bip][Cit][Orn][dL][Dab]LVTCA-NH2; thioether N-14),42.4 nM
12,CC(C)C[C@@H]1NC(=O)[C@H](CCN)NC(=O)[C@@H](CC(C)C)NC(=O)[C@H](CCCN)NC(=O)[C@H](CCCNC(N)=O)NC(=O)[C@H](Cc2ccc(-c3ccccc3)cc2)NC(=O)[C@H](C(C)C)NC(=O)[C@H](Cc2c[nH]c3ccccc23)NC(=O)[C@H](CC(=O)O)NC(=O)[C@H](Cc2ccc(OCC(=O)O)cc2)NC(=O)[C@H](Cc2ccncc2)NC(=O)CSC[C@@H](C(=O)N[C@@H](C)C(N)=O)NC(=O)[C@H]([C@@H](C)O)NC(=O)[C@H](C(C)C)NC1=O [Compound 1042] ({CH2CO}-[4Pal]Y(Carboxymethyl)DWV[Bip][Cit][Orn][dL][Dab]LVTCA-NH2; thioether N-14),13 nM
13,CC(C)C[C@@H]1NC(=O)[C@H](CCN)NC(=O)[C@@H](CC(C)C)NC(=O)[C@H](CCCN)NC(=O)[C@H](CCCNC(N)=O)NC(=O)[C@H](Cc2ccc(-c3ccccc3)cc2)NC(=O)[C@H](C(C)C)NC(=O)[C@H](Cc2c[nH]c3ccccc23)NC(=O)[C@H](CC(=O)O)NC(=O)[C@H](Cc2ccc(C(=O)O)cc2)NC(=O)[C@H](CN)NC(=O)CSC[C@@H](C(=O)N[C@@H](C)C(N)=O)NC(=O)[C@H]([C@@H](C)O)NC(=O)[C@H](C(C)C)NC1=O [Compound 1043] ({CH2CO}-[Dap][Phe(4-COOH)]DWV[Bip][Cit][Orn][dL][Dab]LVTCA-NH2; thioether N-14),31.9 nM
14,CC(C)C[C@@H]1NC(=O)[C@H](CCN)NC(=O)[C@@H](CC(C)C)NC(=O)[C@H](CCCN)NC(=O)[C@H](CCCNC(N)=O)NC(=O)[C@H](Cc2ccc(-c3ccccc3)cc2)NC(=O)[C@H](C(C)C)NC(=O)[C@H](Cc2c[nH]c3ccccc23)NC(=O)[C@H](CC(=O)O)NC(=O)[C@H](Cc2ccc(O)cc2)NC(=O)[C@H](Cc2ccncc2)NC(=O)CSC[C@@H](C(=O)N[C@@H](C)C(N)=O)NC(=O)[C@H]([C@@H](C)O)NC(=O)[C@H](C(C)C)NC1=O [Compound 1044] ({CH2CO}-[4Pal]YDWV[Bip][Cit][Orn][dL][Dab]LVTCA-NH2; thioether N-14),26.1 nM
15,CC(C)C[C@@H]1NC(=O)[C@H](CCN)NC(=O)[C@@H](CC(C)C)NC(=O)[C@H](CCCN)NC(=O)[C@H](CCCNC(N)=O)NC(=O)[C@H](Cc2ccc(-c3ccccc3)cc2)NC(=O)[C@H](C(C)C)NC(=O)[C@H](Cc2c[nH]c3ccccc23)NC(=O)[C@H](CC(=O)O)NC(=O)[C@H](Cc2ccc(C(=O)O)cc2)NC(=O)[C@H](Cc2cccnc2)NC(=O)CSC[C@@H](C(=O)N[C@@H](C)C(N)=O)NC(=O)[C@H]([C@@H](C)O)NC(=O)[C@H](C(C)C)NC1=O [Compound 1045] ({CH2CO}-[3Pal][Phe(4-COOH)]DWV[Bip][Cit][Orn][dL][Dab]LVTCA-NH2; thioether N-14),28.4 nM
